Assay results as given in US5770613A, “Telomerase inhibitors” (Geron Corporation, priority 1995, dated 1998).
“Also recorded” adds a separate entry of the source.

Experiments:
[1] = target: T1, telomerase (Homo sapiens, UniProt O14746); assay: Inhibition of telomerase activity (IC50); format: biochemical; settings: approximate values (Table 2)
T1 construct: preferably a cellular extract or other preparation containing telomerase; endogenous in cells

[2] = system: IMR-90 cells; assay: Long-term exposure of cell colonies, induction of senescence; format: cell-based; settings: 5 μM, added every second day; versus DMSO control
Protocol: (§1) Colonies of the ovarian tumor cell lines OVCAR-5, SK-OV-3 and IMR-90 cells were prepared using standard methods and materials. In one test, the colonies were prepared by seeding 15-centimeter dishes with about 10^6 cells in each dish. The dishes were incubated to allow the cell colonies to grow to about 80% confluence, at which time each of the colonies was divided into two groups. One group was exposed to a subacute dose of Compound V (5 μM) 4-8 hours after plating following the split; the other group was exposed to a DMSO control.
(§2) Each group was then allowed to continue to divide, and the groups were split evenly again (near confluence). The same number of cells were seeded for continued growth. The compound or control was added every second day to the samples at the same concentration delivered initially (5 μM). […] No effect was seen on SK-OV-3 cells.

[3] = system: Topoisomerase II; assay: Enzyme-mediated DNA cleavage assay (Topoisomerase II targeting / cleavable complex formation); format: biochemical
Protocol: Compound V was tested for its ability to target Topoisomerase II in a standard enzyme-mediated DNA cleavage assay. The well known anti-tumor agent VP-16 was used as a positive control. […] The amount of linear DNA was proportional to the concentration of Compound V used in the experiment.

[4] = system: Topoisomerase II; assay: Specificity screen versus telomerase; format: biochemical; settings: from IC50 screening
Excerpt: (§3) Compound V was screened for activity (IC50) against telomerase and several enzymes having nucleic acid binding or modifying activities related to telomerase using standard techniques. The enzymes screened included Telomerase, Topoisomerase II, Terminal Transferase and Single-Stranded DNA Binding Protein (SSB).

[5] = system: Single-Stranded DNA Binding Protein (SSB); assay: Specificity screen versus telomerase; format: biochemical; settings: from IC50 screening
Excerpt: as §3

[6] = system: Terminal Transferase; assay: Specificity screen versus telomerase; format: biochemical; settings: from IC50 screening
Excerpt: as §3

[7] = system: OVCAR-5 cells; assay: Long-term exposure of cell colonies, effect on growth; format: cell-based; settings: 5 μM, added every second day; versus DMSO control
Protocol: as §1, §2

[8] = system: SK-OV-3 cells; assay: as above; format: cell-based; settings: 5 μM, added every second day; versus DMSO control
Protocol: as §1, §2

[9] = system: OVCAR-5 tumor cells; assay: Human tumor xenograft model in nude mice, tumor mass; format: in vivo
Protocol: In vivo testing was also performed using a mouse xenograft model in which OVCAR-5 tumor cells were grafted onto nude mice. […] In contrast, mice treated with a control (DMSO) are expected to have tumor masses that continue to increase.
A human tumor xenograft model in which OVCAR-5 tumor cells were grafted into nude mice was constructed using standard techniques and materials. The mice were divided into two groups. One group was treated intraperitoneally with Compound V. The other group was treated with a control comprising DMSO and phosphate buffer solution (PBS). The average tumor mass for mice in each group was determined periodically following the xenograft using standard methods and materials.

[10] = target: T1, telomerase; assay: specificity in IMR-90, OVCAR-5 and SK-OV-3 cell samples (Topoisomerase II, Single-Strand Binding Protein, Terminal Transferase); format: cell-based; settings: cell samples dosed at one quarter of the IC50 for telomerase, versus Topoisomerase II
Protocol: In on experiment, Compound V was administered to IMR-90, OVCAR-5, and SK-OV-3 cell samples at a concentration one quarter that of its IC50 for telomerase. The effects of Compound V on the activity of Topoisomerase II, Single-Strand Binding Protein, and Terminal Transferase were then determined using standard methodologies.

[11] = system: SK-OV-3; assay: XTT assay for cytotoxicity; format: cell-based; settings: Homo sapiens, 72 hours, 3 μM to 1,000 μM, read-out: LD50 (the source's name)
Protocol: (§4) The XTT assay for cytotoxicity was performed using the ovarian tumor cells lines IMR-90, OVCAR-5 and SK-OV-3. Cells from the normal human cell line BJ were used as a control. The cell lines used in the assay were exposed to Compound V of the invention for 72 hours at concentrations ranging from 3 μM to 1,000 μM. During this period, the optical density (OD) of the samples was determined for light at 540 nanometers (nm).

[12] = system: OVCAR-5; assay: XTT assay for cytotoxicity; format: cell-based; settings: Homo sapiens, 72 hours, 3 μM to 1,000 μM, read-out: LD50 (the source's name)
Protocol: as §4

[13] = system: IMR-90; assay: XTT assay for cytotoxicity; format: cell-based; settings: Homo sapiens, 72 hours, 3 μM to 1,000 μM, read-out: LD50 (the source's name)
Protocol: as §4

T1 sequence (O14746 whole entry): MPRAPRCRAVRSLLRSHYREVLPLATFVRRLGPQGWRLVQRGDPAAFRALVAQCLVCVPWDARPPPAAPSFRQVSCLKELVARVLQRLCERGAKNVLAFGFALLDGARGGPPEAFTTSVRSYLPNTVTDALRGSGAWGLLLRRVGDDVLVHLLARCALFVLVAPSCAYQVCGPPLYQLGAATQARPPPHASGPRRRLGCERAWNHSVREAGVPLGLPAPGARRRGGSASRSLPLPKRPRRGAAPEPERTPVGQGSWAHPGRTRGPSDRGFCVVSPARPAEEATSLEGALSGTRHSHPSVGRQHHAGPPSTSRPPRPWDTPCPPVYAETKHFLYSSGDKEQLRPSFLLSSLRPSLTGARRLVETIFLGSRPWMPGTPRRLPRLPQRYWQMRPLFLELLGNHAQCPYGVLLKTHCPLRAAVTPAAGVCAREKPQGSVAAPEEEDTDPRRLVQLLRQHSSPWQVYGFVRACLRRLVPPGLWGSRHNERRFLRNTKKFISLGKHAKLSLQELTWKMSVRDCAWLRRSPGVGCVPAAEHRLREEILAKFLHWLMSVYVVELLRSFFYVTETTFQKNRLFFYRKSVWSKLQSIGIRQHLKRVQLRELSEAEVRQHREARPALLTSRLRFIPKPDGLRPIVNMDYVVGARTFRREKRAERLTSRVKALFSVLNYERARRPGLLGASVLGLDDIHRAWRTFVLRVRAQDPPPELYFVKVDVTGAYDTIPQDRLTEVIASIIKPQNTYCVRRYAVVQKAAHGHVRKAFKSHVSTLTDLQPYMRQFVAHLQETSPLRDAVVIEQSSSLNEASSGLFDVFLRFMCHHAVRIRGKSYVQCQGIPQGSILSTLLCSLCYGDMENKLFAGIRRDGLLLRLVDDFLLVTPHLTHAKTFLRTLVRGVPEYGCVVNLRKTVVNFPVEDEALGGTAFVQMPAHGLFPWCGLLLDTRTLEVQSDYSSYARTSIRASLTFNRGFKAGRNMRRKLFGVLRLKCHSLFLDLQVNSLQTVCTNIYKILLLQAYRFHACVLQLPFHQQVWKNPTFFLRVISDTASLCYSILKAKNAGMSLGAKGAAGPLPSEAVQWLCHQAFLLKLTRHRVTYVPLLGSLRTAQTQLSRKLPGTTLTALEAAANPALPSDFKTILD

Compound | IC50 [1] | further results
N#Cc1ccc(C=O)nc1SCc1ccc(Cl)s1 [Compound IX] | 5 µM | 
N#Cc1ccc(C=O)nc1SCc1ccc(Cl)c(Cl)c1 [Compound V] | 4.5 µM | induction of senescence earlier than DMSO control [2]: approximately 5 period doublings; Topoisomerase II-mediated DNA cleavage (linear DNA in agarose gel) ([3]; VP-16 as positive control): targeted Topoisomerase II; cleavable complex formation in Topoisomerase II, level of activity versus adriamycin and mitoxantrone ([3]; compared with adriamycin and mitoxantrone): greater than the well-known anti-tumor agents adriamycin and mitoxantrone; also recorded: stronger Topoisomerase II-targeting antitumor agent than the known Topoisomerase II-targeting agents adriamycin and mitoxantrone; inhibitory activity with respect to Topoisomerase II ([3]; qualitative statement): display inhibitory activity with respect to Topoisomerase II; also recorded: demonstrate inhibitory activity with respect to Topoisomerase II; Topoisomerase II activity relative to VP-16 ([3]; relative to VP-16): one fifth the activity of VP-16; lower specificity for Topoisomerase II as compared to telomerase [4]: ≥ 5 fold; lower specificity for Single-Stranded DNA Binding Protein (SSB) as compared to telomerase [5]: ≥ 5 fold; lower specificity for Terminal Transferase as compared to telomerase [6]: ≥ 5 fold; effect on cell growth [7]: small effect; effect on cells [8]: No effect; tumor growth ([9]; 10 mg/(kg.day), intraperitoneal): not affected; increase in tumor weight ([9]; 25 mg/(kg.day), intraperitoneal): practically ceased after about 50 days; tumor mass over time ([9]; average, after increase for a period following initial dosing): began to level with continuing treatment; tumor growth as compared to vehicle ([9]; intraperitoneal, p<0.05, unpaired t-test): statistically significant slowing of tumor growth; specificity for telomerase (factor) [10]: about 5; IC50 [11]: 10 µM; IC50 [12]: 15 µM; IC50 [13]: 5 µM
N#Cc1ccc(C=O)nc1OCc1ccc(Cl)c(Cl)c1 [Compound XIII] | 12.8 µM | 
N#Cc1ccc(C=O)nc1SCC(=O)c1ccc(Cl)cc1 [Compound XII] | 15.1 µM | 
N#Cc1ccc(C=O)nc1SCC(=O)c1ccc(Cl)cc1Cl [Compound XI] | 27 µM | 
N#Cc1ccc(C=O)nc1SCc1c2ccccc2c(CSc2nc(C=O)ccc2C#N)c2ccccc12 [Compound XXIX] | 7 µM | 
Cc1c(CSc2nc(C=O)ccc2C#N)c(C)c(CSc2nc(C=O)ccc2C#N)c(C)c1CSc1nc(C=O)ccc1C#N [Compound XXXI] | < 3.2 µM | 
N#Cc1ccc(C=O)nc1SCC(=O)c1ccc(Cl)c(Cl)c1 [Compound X] | 10.9 µM | 
Cc1c(C)c(C)c(CSc2nc(C=O)ccc2C#N)c(C)c1C [III] | 9 µM | 
N#Cc1ccc(C=O)nc1SCc1ccc(C(F)(F)F)cc1 [IV] | 18 µM | 
CCc1c(CSc2nc(C=O)ccc2C#N)ccc2c1C(C)(C)CCC2(C)C [VIII] | 21 µM | 
CC1(C)CCC(C)(C)c2cc(CSc3nc(C=O)ccc3C#N)ccc21 [VII] | 8 µM | 
N#Cc1ccc(C=O)nc1SCc1c(Cl)cccc1Cl [VI] | 7 µM | 
N#Cc1ccc(C=O)nc1SCc1cc(CSc2nc(C=O)ccc2C#N)c(CSc2nc(C=O)ccc2C#N)cc1CSc1nc(C=O)ccc1C#N [XXXIII] | < 3.2 µM | 
N#Cc1ccc(C=O)nc1SCc1ccc(CSc2nc(C=O)ccc2C#N)c(CSc2nc(C=O)ccc2C#N)c1CSc1nc(C=O)ccc1C#N [XXXII] | < 3.2 µM | 

More lines, main results first:

IC50 [1] | Compound | further results
5 µM | N#Cc1ccc(C=O)nc1SCc1ccc(CSc2nc(C=O)ccc2C#N)cc1 [Compound XIX] | 
6 µM | N#Cc1ccc(C=O)nc1SCc1ccccc1CSc1nc(C=O)ccc1C#N [Compound XVIII] | 
< 3.2 µM | N#Cc1ccc(C=O)nc1SCc1cccc(CSc2nc(C=O)ccc2C#N)c1 [Compound XVII] | 
< 3.2 µM | Cc1cc(C)c(CSc2nc(C=O)ccc2C#N)c(C)c1CSc1nc(C=O)ccc1C#N [Compound XVI] | 
< 3.2 µM | Cc1cc(C)c(CSc2nc(C=O)ccc2C#N)cc1CSc1nc(C=O)ccc1C#N [Compound XV] | 
7 µM | Cc1cc(CSc2nc(C=O)ccc2C#N)c(C)cc1CSc1nc(C=O)ccc1C#N [Compound XXIII] | 
4 µM | Cc1c(C)c(CSc2nc(C=O)ccc2C#N)c(C)c(CSc2nc(C=O)ccc2C#N)c1C [Compound XXII] | 
< 3.2 µM | N#Cc1ccc(C=O)nc1SCc1ccccc1-c1ccccc1CSc1nc(C=O)ccc1C#N [Compound XXIV] | 
< 3.2 µM | N#Cc1ccc(C=O)nc1SCc1cc(Cl)c(CSc2nc(C=O)ccc2C#N)cc1Cl [Compound XXI] | 
< 3.2 µM | N#Cc1ccc(C=O)nc1SCc1c(Cl)c(Cl)c(CSc2nc(C=O)ccc2C#N)c(Cl)c1Cl [Compound XXVIII] | 
< 3.2 µM | N#Cc1ccc(C=O)nc1SCc1cccc2cccc(CSc3nc(C=O)ccc3C#N)c12 [Compound XXVII] | 
6 µM | N#Cc1ccc(C=O)nc1SCc1cc2ccccc2cc1CSc1nc(C=O)ccc1C#N [Compound XXVI] | 
< 3.2 µM | N#Cc1ccc(C=O)nc1SCc1cc(Br)ccc1-c1ccc(Br)cc1CSc1nc(C=O)ccc1C#N [Compound XXV] | 
7 µM | N#Cc1ccc(C=O)nc1SCCCCSc1nc(C=O)ccc1C#N [Compound XXXIV] | 
5 µM | N#Cc1ccc(C=O)nc1SCC#CCSc1nc(C=O)ccc1C#N [Compound XXXVI] | 
10 µM | N#Cc1ccc(C=O)nc1SCC=CCSc1nc(C=O)ccc1C#N [Compound XXXV] | 
7 µM | N#Cc1ccc(C=O)nc1SCc1ccc2ccccc2c1CSc1nc(C=O)ccc1C#N [Compound XXX] | 
< 3.2 µM | Cc1c(C)c(C)c(CSc2nc(C=O)ccc2C#N)c(CSc2nc(C=O)ccc2C#N)c1C [Compound XX] | 
